These results are taken from the OligoGym collection.

Where “and” joins values, the source holds several entries; their conditions need not be identical. Identical values can stand only once. After the bases stand the sugars from the 5' end (letter, count) and the backbone: PS all phosphorothioate, else s phosphorothioate and o phosphodiester by linkage. Methylation of C is not given here. k = constrained ethyl (cEt); d = 2'-deoxy (DNA)

This series deals with MALAT1. The note with it: ASO, A431, 0.005 µM.
Take GGGAATACTCTTCCAA (sugars k3 d10 k3, PS): the target mRNA inhibition was determined as 14%.

Turning to GGGACGGTTGAGAAGT (sugars k3 d10 k3, PS), the target mRNA inhibition stood at 7%. As for GGGAGTTACTTGCCAA (sugars k3 d10 k3, PS), the figure is 10%; as for GGGAGTTGAGGCAAGT (sugars k3 d10 k3, PS), 6%. As for GGTAATTACTCTTGAT (sugars k3 d10 k3, PS), the figure is 50%. To GGTCTAGGATCCTCTA (sugars k3 d10 k3, PS) belongs 23%; to GGTGAATTCAACTGGA (sugars k3 d10 k3, PS), 49%.

As to GGTTAGGTATGAGCTT (sugars k3 d10 k3, PS), the target mRNA inhibition is 8%. To GGTTATAGCTTGACAA (sugars k3 d10 k3, PS) belongs 78% and 95%; to GGTTTAAGTTGGTTTT (sugars k3 d10 k3, PS), 90% and 97%.

Consider GGTTTTAATACCCTTC (sugars k3 d10 k3, PS), for which the target mRNA inhibition is 51%.

Consider GTAAAAACAGGTCATC (sugars k3 d10 k3, PS), for which the target mRNA inhibition turned out to be 21%. To GTAAACCTGTGGTGGT (sugars k3 d10 k3, PS) belongs 56% and 60%; to GTAACCTATTGACTAT (sugars k3 d10 k3, PS), 33%; to GTACATTTTGCCCTTA (sugars k3 d10 k3, PS), 64% and 45%. To GTACGAAACTCCCCCA (sugars k3 d10 k3, PS) belongs 38%.

Consider GTAGATTCCGTAACTT (sugars k3 d10 k3, PS), for which the target mRNA inhibition is 73% and 54% and 50%. To GTATTACTCTAATCAC (sugars k3 d10 k3, PS) belongs 34%; to GTATTATAATAGAGCT (sugars k3 d10 k3, PS), 4%; to GTCAAGACAACTGCAT (sugars k3 d10 k3, PS), 3%. To GTCAAGCTCCTGACAA (sugars k3 d10 k3, PS) belongs 33%; to GTCACTGGATAAGTAT (sugars k3 d10 k3, PS), 48%; to GTCTACAAGTTACATG (sugars k3 d10 k3, PS), 13%.

Take GTCTCATACACTCACT (sugars k3 d10 k3, PS): the target mRNA inhibition is -4%. Consider GTCTTAGCAGAGAATT (sugars k3 d10 k3, PS), for which the target mRNA inhibition turned out to be 47%. To GTGAATTCAACTGGAA (sugars k3 d10 k3, PS) belongs 50%. As for GTGGCCTTTTAAAGTA (sugars k3 d10 k3, PS), the figure is 15%; as for GTGTAGCACCTGGGTC (sugars k3 d10 k3, PS), 64% and 46%; as for GTGTGATAGTTCAGGG (sugars k3 d10 k3, PS), 8%. As for GTTAACAATTTGCAGG (sugars k3 d10 k3, PS), the figure is 40%; as for GTTACACCTTGAGTCA (sugars k3 d10 k3, PS), 53%.

Consider GTTACCATAAGTAAGT (sugars k3 d10 k3, PS), for which the target mRNA inhibition turned out to be 2%. For GTTACTCCAGCATAAA (sugars k3 d10 k3, PS), the target mRNA inhibition was determined as 0%.

Take GTTATGACTCAGAAGA (sugars k3 d10 k3, PS): the target mRNA inhibition amounted to 26%. To GTTCGCAGACAAAGTT (sugars k3 d10 k3, PS) belongs 36%; to GTTGAGGCAAGTCCTC (sugars k3 d10 k3, PS), 3%; to GTTTTATCTAAATACC (sugars k3 d10 k3, PS), 29%. As for TAAAAGATCGCCTTCA (sugars k3 d10 k3, PS), the figure is 41%; as for TAAACGGGTCATCAAA (sugars k3 d10 k3, PS), 34%. To TAAAGTAAATAGGCTA (sugars k3 d10 k3, PS) belongs 21%; to TAAATGACGCAATTCT (sugars k3 d10 k3, PS), 8%; to TAAATTGGTAGCTTTC (sugars k3 d10 k3, PS), 74% and 80%. Regarding TAACAGGCCACTGCCA (sugars k3 d10 k3, PS), the target mRNA inhibition was 11%. To TAACATAGTTCAACCC (sugars k3 d10 k3, PS) belongs 17%. As for TAACTACCAGCCATTT (sugars k3 d10 k3, PS), the figure is 24%; as for TAACTGATCTGACTTT (sugars k3 d10 k3, PS), 26%; as for TAACTTCCCCCAGCTT (sugars k3 d10 k3, PS), 20%. As for TAAGAACTCCACAGCT (sugars k3 d10 k3, PS), the figure is 41%; as for TAAGCCTTCGGTGCCT (sugars k3 d10 k3, PS), 4%. For TAATAGAGCTACTTAG (sugars k3 d10 k3, PS), the target mRNA inhibition was -16%. To TAATAGCAGCGGGATC (sugars k3 d10 k3, PS) belongs 30%; to TAATGCTAGTCCTCAG (sugars k3 d10 k3, PS), 38%. Regarding TAATTACTCTTGATCT (sugars k3 d10 k3, PS), the target mRNA inhibition was 48% and 72%. As for TACAAAAGCTACCATC (sugars k3 d10 k3, PS), the figure is 12%. As for TACAACAAGTAAGCCC (sugars k3 d10 k3, PS), the figure is 20%; as for TACAAGTTACATGTTC (sugars k3 d10 k3, PS), 20%. As for TACAGAAAGAGTCCTG (sugars k3 d10 k3, PS), the figure is 17%; as for TACCATATCCAAACAA (sugars k3 d10 k3, PS), 11%. Turning to TACCTAAACCCACCCC (sugars k3 d10 k3, PS), the target mRNA inhibition is 6%. To TACCTCTTAAAGCACT (sugars k3 d10 k3, PS) belongs -17%.

With TACCTTTTACTCTGAT (sugars k3 d10 k3, PS), the target mRNA inhibition amounted to 42%. Consider TACGCAACTGAGCCCC (sugars k3 d10 k3, PS), for which the target mRNA inhibition came out at 0%.

As to TACTATAGCATCTGTG (sugars k3 d10 k3, PS), the target mRNA inhibition is -7%.

For TACTGCATTTACTTGC (sugars k3 d10 k3, PS), the target mRNA inhibition was 20%. To TACTTGCCAACTTGGA (sugars k3 d10 k3, PS) belongs 51%; to TAGAGCTTCTCCATTT (sugars k3 d10 k3, PS), -15%; to TAGATTCACTGAATCC (sugars k3 d10 k3, PS), -4%.

Turning to TAGGGAAAAGTGGTTG (sugars k3 d10 k3, PS), the target mRNA inhibition is -13%. To TATAAGGACAGCTAAG (sugars k3 d10 k3, PS) belongs 21%; to TATAATAGAGCTACTT (sugars k3 d10 k3, PS), 15%. As for TATAGTTTACCACCTT (sugars k3 d10 k3, PS), the figure is 14%.
